# Earlier results in US20110033519A1, “Device with Aromatase Inhibitor for the Treatment and Prevention of Uterine Fibroids and Method of Use” (priority 2009, published 2011).
# Like-named read-outs stand apart in the source and are kept apart here.
# Columns and labels:
# fibroids = conditions: three months
# human sperm = conditions: incubated in a solution of copper ions; after 120 minutes
compound,measurement,setting,value
CC(C)(C#N)c1cc(Cn2cncn2)cc(C(C)(C)C#N)c1 [Anastrozole],reduction in fibroid volume,"fibroids; oral, 1 mg/day",56%
N#Cc1ccc(C(c2ccc(C#N)cc2)n2cncn2)cc1 [Letrozole],reduction in fibroid volume,"fibroids; study of 35 women, 2.5 mg per day orally",45%
same,reduction in fibroid volume,"fibroids; trial of 16 women, oral, 5 mg/day",47%
copper ions,human sperm immotile,human sperm,Ninety-five
